Reference: patent US7261901B2, “Vaccine and compositions for the prevention and treatment of neisserial infections” (University of Iowa Research Foundation, priority 2001, dated 2007)

Columns and labels:
[1] = test system: primary ectocervical cells; experiment: Gentamycin-resistance invasion assay of N. gonorrhoeae 1291 with inhibitors of cytoskeletal motility and protein synthesis, ectocervical cells; assay type: cell-based, human; conditions: for effect on bacterial entry / gonococcal invasion: both cell types (endo- and ectocervical)
Description: Invasion Assays in the Presence of Inhibitors of Cytoskeletal Motility and Protein Synthesis: Cervical cells were passed to 12 mm collagen-coated coverslips as outlined above. Prior to infection with N. gonorrhoeae 1291 wild-type cells, primary cell cultures were left untreated, or they were pre-incubated with 300 nM wortmannin (Sigma), 1 μM cytochalasin D (Sigma), or 400 mM ethylene glycol bis-(2-aminoethyl ether)-N,N, N′, N′ tetraacetic acid ((EGTA) Amresco, Solon, Ohio) for 2 h, 30 min, and 30 min, respectively, or they were pretreated with 100 µg/ml nocodazole (Calbiochem-Novabiochem Corp., La Jolla, Calif.) for 1 h at 4° C. followed by a 30 min incubation at 37° C. The requirement for de novo protein synthesis, either by the bacteria or by the primary cervical cells, was tested by pretreatment (30 min, 37° C.) of the bacterial cultures or cervical cell monolayers with 4 μg/ml chloramphenicol (Sigma) or 25 μM cycloheximide (Calbiochem-Novabiochem Corp.), respectively. All chemical reagents used were maintained in the infection medium throughout the course of the infection. […] Infection was allowed to progress at 37° C., 5% CO2, for 1.5 h after which the medium was removed, the cells were rinsed with PBS, and then incubated with KGM-2 containing 100 μg/ml gentamycin to kill extracellular bacteria. Post incubation the cervical cells were lysed with 0.5% saponin to release invasive bacteria. Percent invasion was determined as a function of the original inoculum and the number of colonies formed with subsequent plating of the cellular lysate. A Kruskal-Wallace ANOVA was used to determine the statistical significance of the calculated percent invasion for each of the cytoskeletal motility inhibitors used with respect to the untreated, infected cell cultures.

[2] = test system: primary cervical cells; experiment: Association and invasion assays, primary cervical cells (cell type not specified); assay type: cell-based, human; conditions: negative controls: 200 nM 4-α phorbol, 3 mM hydrogen peroxide
Description: The anti-PLD antibody was screened for specificity to PLD using assays well-known to the art.
(§1) 8. N. gonorrhoeae Attachment to and Invasion of Primary, Human, Cervical Cells. Primary cervical cell monolayers were infected with wild-type or PLD mutant gonococci as outlined above. Variable concentrations of Streptomyces spp. PLD (SsPLD) (Sigma), PMA, or 4-α phorbol were included in association (adherence and invasion) or invasion assays, as noted. Cervical cells were preincubated (30 minutes, 37° C.) with 200 nM PMA or 4-α phorbol before the addition of gonococci. 10 units ml^−1 SsPLD was added simultaneously with gonococci. Alternatively, where noted, cervical cell monolayers were pre-incubated (30 minutes, 37° C.) with pervanadate, which was made by mixing 100 μM ortho-sodium vanadate in 3 mM hydrogen peroxide. In separate assays, infection supernatants were collected from wild-type or PLD mutant-infected cervical cell monolayers, gonococci were removed by filtration through a 0.22 μm syringe filter (i.e., wild-type or mutant primed supernatants) and were added to association and/or invasion assays, as noted. The ability of gonococci to adhere to and/or invade pex and pen cells was quantitatively determined using standard gentimicin-resistance assays, performed as described previously (Edwards et al., 2000), and in which chemical or protein additives were included or excluded from the invasion assay as described above. The total association (i.e., adherence and invasion) of gonococci with pex and pen cells was quantitated by the omission of gentimicin from the above described invasion assay. Percent invasion of N. gonorrhoeae 1291 or 1291ΔPLDin the presence or absence of experimental additives was determined as a function of the original inoculum and the number of colonies formed with subsequent plating of the cellular lysate. A Kruskal-Wallis non-parametric analysis of variance was used to determine the statistical significance of the association and invasion assays described above.

[3] = test system: PLD; experiment: PLD activity (Amplex Red Phospholipase D Assay Kit) in gonococci, infected cervical cell lysates, fractions and supernatants; assay type: biochemical, N. gonorrhoeae
Description: (§2) 4. Determination of PLD Activity. PLD activity was accessed using the Amplex™ Red Phospholipase D Assay Kit (Molecular Probes, Eugene Oreg.). Wild-type and PLD mutant gonococci were suspended in PLD assay buffer to a final concentration of 10^7 bacteria ml^−1, and activity was determined according to the manufacturer's protocol. Assessment of PLD activity at acidic pH was determined in a two-step assay according to the manufacturer's protocol. For the first step, 10^8 gonococci were suspended in PBS with the pH adjusted to 3.0, 4.5, or 6.0. Gonococcal suspensions were diluted 10-fold in PLD assay buffer for the second step of the reaction. Cervical cell fractions were prepared as outlined below and PLD activity was assessed at neutral pH according to the manufacturer's protocol.
5. Fractionation of Primary Cervical Cells. Uninfected (control) and infected cervical cell monolayers were lysed in buffer A (50 mM tris, pH 7.5; 10 mM NaCl, 1 mM KCl; 2 mM MgCl2, 1 mM PMSF) by scraping cervical cells from tissue culture dishes placed on ice. The cell lysate was sonicated (two bursts of 20 seconds each). Cell debris and the nuclear fraction was removed by centrifugation (750×g, 10 minutes), and the supernatant from this spin was then subjected to filtration through a low-protein binding 0.22 μm syringe filter to ensure removal of gonococci. Alternatively, gonococci were removed by immunoprecipitation (as described by Wen et al., 2000) using the monoclonal antibody, 2C3, which recognizes the H.8 outer membrane protein of the pathogenic Neisseria. Sucrose was added to the resulting gonococcus-depleted supernatant (S1) to a final concentration of 300 mM. Ultracentrifugation (150,000×g, 90 minutes) was then performed to produce the plasma membrane-(pellet) and cytosol (supernatant 2, S2)-enriched fractions. The membrane-enriched fraction was resuspended in PLD assay buffer (50 mM Tris, 5 mM CaCl2, pH 8.0). S2 was concentrated by filtration through Centricon YM-30 centrifugal filter units (Millipore) after which cytosolic constituents were recovered in PLD assay buffer. Where indicated, prior to infection studies primary pex and pen cell monolayers were treated with 300 nM wortmannin (Sigma) (2 hours, 37° C.) or 1 μM cytochalasin D (Sigma) (30 minutes, 37° C.) to inhibit macropinocytosis of gonococci. Wortmannin and cytochalasin D were maintained in cervical cell cultures during the course of infection.
as §2, with “Determination of” for “4. Determination of”, “Assessment of gonococcal PLD activity” for “Assessment of PLD activity”
Fractionation of Primary Cervical Cells. Uninfected (control) and infected cervical cell monolayers were lysed in buffer A (50 mM tris, pH 7.5; 10 mM NaCl, 1 mM KCl; 2 mM MgCl2, 1 mM PMSF) by scraping cervical cells from tissue culture dishes placed on ice. The cell lysate was sonicated (two bursts of 20 seconds each). […] Sucrose was added to the resulting gonococcus-depleted supernatant (S1) to a final concentration of 300 mM. Ultracentrifugation (150,000×g, 90 minutes) was then performed to produce the plasma membrane-(pellet) and cytosol (supernatant 2, S2)-enriched fractions. The membrane-enriched fraction was resuspended in PLD assay buffer (50 mM Tris, 5 mM CaCl2, pH 8.0). […]

[4] = test system: Ectocervical Cells; experiment: Association and invasion (gentimicin-resistance) assays, primary ectocervical (pex) cells; assay type: cell-based, human
Description: as §1
N. gonorrhoeae Attachment to and Invasion of Primary, Human, Cervical Cells. Primary cervical cell monolayers were infected with wild-type or PLD mutant gonococci as outlined above. Variable concentrations of PtC (Sigma), ethanol, 2-butanol, or Streptomyces spp. PLD (SsPLD) (Sigma) were included in association (adherence and invasion) or invasion assays, as noted. PtC, ethanol, 2-butanol, or 10 units ml^−1 SsPLD were added simultaneously with gonococci. In separate assays, infection supernatants were collected from wild-type or PLD mutant-infected cervical cell monolayers, gonococci were removed by filtration through a 0.22 μm syringe filter (to yield primed wild-type or mutant supernatants), which were then added to association and/or invasion assays, as noted. The ability of gonococci to adhere to and/or invade pex and pen cells was quantitatively determined using standard gentimicin-resistance assays, performed as described previously (Edwards et al., 2000) and in which chemical or protein additives were included or excluded from the invasion assay as described above. The total association (i.e., adherence and invasion) of gonococci with pex and pen cells was quantitated by the omission of gentimicin from the above described invasion assay. Percent invasion of N. gonorrhoeae 1291 or 1291ΔPLD in the presence or absence of experimental additives was determined as a function of the original inoculum and the number of colonies formed with subsequent plating of the cellular lysate. Inhibition of gonococcal attachment and/or invasion by exogenous PtC, ethanol, or 2-butanol was determined as a normalized function of the ability of gonococci to attach to and/or invade primary cervical cells in the absence of the competimer inhibitor. A Kruskal-Wallis non-parametric analysis of variance was used to determine the statistical significance of the association and invasion assays described above.

[5] = test system: primary human ectocervical cells; experiment: rI-domain inhibition of adherence and invasion of primary ectocervical cells by N. gonorrhoeae 1291; assay type: cell-based
Description: Studies were performed evaluating the ability of the rI-domain to inhibit adherence and invasion of primary human ectocervical cells by Neisseria gonorrhoeae. The cervical cells were infected with 107 N. gonorrhoeae strain 1291. Recombinant I-domain is a potent inhibitor of ectocervical cell association by Neisseria gonorrhoeae. As little as 1 ng of rI-domain gives over 90% inhibition of invasion. With decreasing amounts of rI-domain the inhibition decreases in a dose dependent fashion.

[6] = PtC 10.0 µg/ml, wild-type gonococci

Molecule: C[C@@H]1C[C@@H]([C@H](O)CC2CC(=O)NC(=O)C2)C(=O)[C@@H](C)C1 [Cycloheximide, cycloheximide]
- effect on bacterial entry / gonococcal invasion [1]: did not inhibit gonococcal invasion

Molecule: CC1=C[C@H]2[C@@]3(O)[C@H](C)[C@@H](O)[C@]4(O)[C@H]([C@@H]3C=C(CO)C[C@@]2(O)C1=O)C4(C)C [4-α-phorbol]
- effect on gonococcal association, invasion or CR3 cell surface recruitment [2]: had no affect

Molecule: C=C1[C@@H](C)[C@H]2[C@H](Cc3ccccc3)NC(=O)[C@]23[C@H](OC(C)=O)/C=C/[C@@](C)(O)C(=O)[C@@H](C)C/C=C/[C@H]3[C@@H]1O [Cytochalasin D, cytochalasin D]
- effect on bacterial entry / gonococcal invasion [1]: prohibited bacterial entry
- PLD Activity in Ectocervical Cell Fractions [Mean (variance)] ([3]; Cytosolic fraction, 1291ΔPLD infected w/ inhibitor (300 nM wortmannin or 1 μM cytochalasin D)): 0.330 (0.07) Fluorescence Units
- PLD Activity in Ectocervical Cell Fractions [Mean (variance)] ([3]; Cytosolic fraction, Uninfected w/ inhibitor (300 nM wortmannin or 1 μM cytochalasin D)): 0.395 (0.03) Fluorescence Units
- PLD Activity in Ectocervical Cell Fractions [Mean (variance)] ([3]; Cytosolic fraction, WT 1291 infected w/ inhibitor (300 nM wortmannin or 1 μM cytochalasin D)): 0.462 ((0.03) Fluorescence Units
- PLD Activity in Ectocervical Cell Fractions [Mean (variance)] ([3]; Membrane fraction, 1291ΔPLD infected w/ inhibitor (300 nM wortmannin or 1 μM cytochalasin D)): 0.393 (0.01) Fluorescence Units
- PLD Activity in Ectocervical Cell Fractions [Mean (variance)] ([3]; Membrane fraction, Uninfected w/ inhibitor (300 nM wortmannin or 1 μM cytochalasin D)): 0.389 (0.01) Fluorescence Units
- PLD Activity in Ectocervical Cell Fractions [Mean (variance)] ([3]; Membrane fraction, WT 1291 infected w/ inhibitor (300 nM wortmannin or 1 μM cytochalasin D)): 0.436 (0.03) Fluorescence Units

Molecule: phosphatidylcholine [PtC]
- Inhibition (%) [4, 6]: 98.7786 (0.08) %
- Invasion (%) [4, 6]: 0.0331 (0.01) %
- Inhibition (%) ([4]; PtC 0.01 g/ml): 68.8105 (2.15) %
- Invasion (%) ([4]; PtC 0.01 g/ml): 0.8379 (0.03) %
- Inhibition (%) ([4]; PtC 0.1 g/ml): 87.3571 (0.28) %
- Invasion (%) ([4]; PtC 0.1 g/ml): 0.3418 (0.01) %
- Inhibition (%) ([4]; PtC 1.0 g/ml): 92.4681 (0.38) %
- Invasion (%) ([4]; PtC 1.0 g/ml): 0.2038 (0.01) %

Molecule: O=C(O)CN(CCOCCOCCN(CC(=O)O)CC(=O)O)CC(=O)O [EGTA, ethylene glycol bis-(2-aminoethyl ether)-N,N, N′, N′ tetraacetic acid]
- effect on bacterial entry / gonococcal invasion [1]: prohibited bacterial entry

Molecule: O=C(N[C@H](CO)[C@H](O)c1ccc([N+](=O)[O-])cc1)C(Cl)Cl [Chloramphenicol, chloramphenicol]
- effect on bacterial entry / gonococcal invasion [1]: did not inhibit gonococcal invasion

Molecule: COC(=O)Nc1nc2ccc(C(=O)c3cccs3)cc2[nH]1 [Nocodazole, nocodazole]
- decrease in gonococcal invasion ([1]; pretreatment of primary cervical cell monolayers): ~67%

B1: rI domain: recombinant murine I-domain of CR3 alpha-subunit, 23 kilodalton peptide with Myc and His domains (SEQ ID NO: 11) (protein, listed as Mus musculus)
chain: FPQQESDIVFLIDGSGSINNIDFQKMKEFVSTVMEQFKKSKTLFSLMQYSDEFRIHFTFNDFKRNPSPRSHVSPIKQLNGRTKTASGIRKVVRELFHKTNGARENAAKILVVITDGEKFGDPLDYKDVIPEADRAGVIRYVIGVGNAFNKPQSRRELDTIASKPAGEHVFQVDNFEALNTIQNQLQEKIFAIPAAASFL
modifications: Myc and His tags
- % inhibition of invasion of primary exocervical cells ([5]; rI domain 1 pg/ml): 17.4%
- % inhibition of invasion of primary exocervical cells ([5]; rI domain 10 pg/ml): 56.3%
- % inhibition of invasion of primary exocervical cells ([5]; rI domain 100 pg/ml): 77.5%
- % inhibition of invasion of primary exocervical cells ([5]; rI domain 1 ng/ml): 92.1%
- % inhibition of invasion of primary exocervical cells ([5]; rI domain 1 ng/ml, listed as rI-domain): over 90%
- % inhibition of invasion of primary exocervical cells ([5]; rI domain 10 ng/ml): 94.6%
- % inhibition of invasion of primary exocervical cells ([5]; rI domain 100 ng/ml): 96.8%
- % inhibition of invasion of primary exocervical cells ([5]; rI domain 1 μg/ml, N. gonorrhoeae 1291): 98.56%
